Results taken from ChEMBL document CHEMBL5625206, “Design, synthesis, and evaluation of novel pleuromutilin aryl acrylate derivatives as promising broad-spectrum antibiotics especially for combatting multi-drug resistant gram-negative bacteria” (Eur J Med Chem, 2023).
Converted amounts (≈) assume the structure as drawn.

Experiments:
[1] = system: Staphylococcus epidermidis; assay: Antibacterial activity against Staphylococcus epidermidis ATCC 12228 assessed as bacterial growth inhibition incubated for 24 hrs by CLSI based broth microdilution method; type: functional
Staphylococcus aureus [2] = assay: Antibacterial activity against Staphylococcus aureus ATCC 25923 assessed as bacterial growth inhibition incubated for 24 hrs by CLSI based broth microdilution method; type: functional
Staphylococcus aureus [3] = assay: Antibacterial activity against Staphylococcus aureus ATCC 29213 assessed as bacterial growth inhibition incubated for 24 hrs by CLSI based broth microdilution method; type: functional
Staphylococcus aureus [4] = assay: Antibacterial activity against methicillin-resistant Staphylococcus aureus ATCC 33591 assessed as bacterial growth inhibition incubated for 24 hrs by CLSI based broth microdilution method; type: functional
Escherichia coli = assay: Antibacterial activity against Escherichia coli ATCC 25922 assessed as bacterial growth inhibition incubated for 24 hrs by CLSI based broth microdilution method; type: functional
Acinetobacter baumannii [5] = assay: Antibacterial activity against Acinetobacter baumannii ATCC 19606 assessed as bacterial growth inhibition incubated for 24 hrs by CLSI based broth microdilution method; type: functional
Staphylococcus aureus [6] = assay: Antibacterial activity against methicillin-resistant Staphylococcus aureus 171 clinical isolate assessed as bacterial growth inhibition incubated for 24 hrs by CLSI based broth microdilution method; type: functional
Staphylococcus aureus [7] = assay: Antibacterial activity against methicillin-resistant Staphylococcus aureus 575 clinical isolate assessed as bacterial growth inhibition incubated for 24 hrs by CLSI based broth microdilution method; type: functional
Enterococcus = assay: Antibacterial activity against vancomycin-resistant Enterococcus 80 clinical isolate assessed as bacterial growth inhibition incubated for 24 hrs by CLSI based broth microdilution method; type: functional
Pseudomonas aeruginosa = assay: Antibacterial activity against multidrug-resistant Pseudomonas aeruginosa 126 clinical isolate assessed as bacterial growth inhibition incubated for 24 hrs by CLSI based broth microdilution method; type: functional
Klebsiella pneumoniae = assay: Antibacterial activity against multidrug-resistant Klebsiella pneumoniae 893 clinical isolate assessed as bacterial growth inhibition incubated for 24 hrs by CLSI based broth microdilution method; type: functional
Acinetobacter baumannii [8] = assay: Antibacterial activity against carbapenem-resistant Acinetobacter baumannii 882 clinical isolate assessed as bacterial growth inhibition incubated for 24 hrs by CLSI based broth microdilution method; type: functional
Staphylococcus aureus [9] = assay: Bactericidal activity against methicillin-resistant Staphylococcus aureus ATCC 33591 at MIC incubated for 24 hrs by time kill assay relative to control; type: functional
Staphylococcus aureus [10] = assay: Bactericidal activity against methicillin-resistant Staphylococcus aureus ATCC 33591 at 2 to 4 times MIC incubated for 24 hrs by time kill assay relative to control; type: functional
[11] = Cytotoxicity against human HepG2 cells incubated for 24 hrs by CCK8 assay; type: toxicity, cell-based
[12] = Cytotoxicity against HEK293 cells incubated for 24 hrs by CCK8 assay; type: toxicity, cell-based; conditions: human
[13] = Cytotoxicity against human A549 cells incubated for 24 hrs by CCK8 assay; type: toxicity, cell-based

C=C[C@]1(C)C[C@@H](OC(=O)CS[C@@H]2C[C@H]3CC[C@@H](C2)N3C)[C@]2(C)[C@H](C)CC[C@]3(CCC(=O)[C@H]32)[C@@H](C)[C@@H]1O [RETAPAMULIN]
MIC [1]: 32 µg/mL (≈ 61.8 µM) | MIC (Staphylococcus aureus [2]): 4 µg/mL (≈ 7.73 µM) | MIC (Staphylococcus aureus [3]): 4 µg/mL (≈ 7.73 µM) | MIC (Staphylococcus aureus [4]): 32 µg/mL (≈ 61.8 µM) | MIC (Escherichia coli): 16 µg/mL (≈ 30.9 µM) | MIC (Acinetobacter baumannii [5]): 16 µg/mL (≈ 30.9 µM) | MIC (Staphylococcus aureus [6]): 128 µg/mL (≈ 247 µM) | MIC (Staphylococcus aureus [7]): 64 µg/mL (≈ 124 µM) | MIC (Enterococcus): > 128 µg/mL | MIC (Pseudomonas aeruginosa): 128 µg/mL (≈ 247 µM) | MIC (Klebsiella pneumoniae): 64 µg/mL (≈ 124 µM) | MIC (Acinetobacter baumannii [8]): 64 µg/mL (≈ 124 µM) | Activity (Staphylococcus aureus [9]): 44.49% | Activity (Staphylococcus aureus [10]): 100% | CC50 at 24 h [11]: 36.5 µM | CC50 at 24 h [12]: 62.9 µM | CC50 at 24 h [13]: 74.2 µM
